Reference: publication PMC3373380 (BMC Pharmacology, 2012)

How the values were obtained:
cynomolgus monkey DPP9 = cynomolgus monkey DPP9 (Macaca fascicularis, UniProt A0A2K5TQ54); experiment: Steady-state inhibition of isolated cloned DPP9 at 37°C (gly-pro-pNA); format: biochemical; details: mean ± SD (n)
Description: (§1) All solutions were preheated to 37°C.
(§2) DPP8 and DPP9 were tested under identical conditions.

plasma DPP activity [1] = experiment: Cynomolgus monkey ex vivo plasma DPP inhibition, ala-pro-AFC assay; format: in vivo; details: cynomolgus monkeys, single oral doses, 24 hours post dose
Description: (§3) Male and female cynomolgus monkeys (Charles River BRF, Houston, TX), were housed in an AAALAC-accredited facility (on a 12-hour light/dark cycle) in stainless-steel cages. They had access to purified tap water ad libitum and were fed Harlan Diet 2050 C (Certified 20% protein primate diet). […]. Doses were administered once weekly using a crossover design such that no monkeys received the same dose twice. For the ex vivo cynomolgus monkey assays, blood samples (approximately 0.5 ml) were collected prior to dosing and 1, 2, 4, 6, 8, and 24 hours post dosing in tubes containing K2EDTA. Tubes were inverted several times to ensure mixing, and placed on ice. Samples were centrifuged at 5000 rpm for 10 minutes at 4°C for plasma isolation. Plasma was stored at -20°C until analyzed for DPP activity. No difference in DPP inhibition was noted between males and females and so data were combined for analyses.
(§4) This procedure produced a 3-fold dilution of plasma.

cynomolgus monkey DPP8 = cynomolgus monkey DPP8 (Macaca fascicularis, UniProt A0A2K5VHB7); experiment: Steady-state inhibition of isolated cloned DPP8 at 37°C (gly-pro-pNA); format: biochemical; details: mean ± SD (n)
Description: as §1, §2

[2] = molecular target: cynomolgus monkey plasma DPP activity (Macaca fascicularis, UniProt A0A2K5VXJ1); experiment: Ala-pro-AFC plasma DPP inhibition assay in vitro; format: biochemical
Text: as §4

plasma DPP activity [3] = experiment: Cynomolgus monkey ex vivo plasma DPP inhibition, gly-pro-pNA assay; format: in vivo; details: cynomolgus monkeys, single oral doses, 24 hours post dose, same samples
Description: as §3
This assay was reported by Merck as used in their clinical trials, using gly-pro-pNA as substrate. […] Activity, the rate of release of free pNA from the pseudo-substrate, was assayed at 30°C, using a Spectramax 340 plate reader ([…]) with rate determining software. Absorbance at 390 nm was measured. Results were expressed as arbitrary units because standard pNA curves were not run for all experiments. The extent of DPP inhibition and IC50 values were calculated as described above.

human DPP8 = molecular target: T1, human DPP8 (Homo sapiens, UniProt Q6V1X1); experiment: Steady-state inhibition of isolated cloned DPP8 at 37°C (gly-pro-pNA); format: biochemical
T1 construct: made in house
Description: (§5) All solutions were preheated to 37°C. Inhibitors were preincubated with enzyme for 40 minutes prior to assay initiation. […] Softmax Pro software from Molecular Devices (Sunnyvale, CA) was used to obtain the initial slope of the reaction in each well, and the fits were inspected to insure that the reactions were linear to a correlation coefficient of 0.99. An Excel template with XLFit (IDBS, Guildford, U.K.) was used for determination of the IC50 for inhibition at each substrate concentration. […] Therefore, IC50 was then converted to Ki assuming competitive inhibition according to:
(§6) The calculated Ki values for competitive inhibition at each substrate concentration were averaged and reported. DPP8 and DPP9 were tested under identical conditions. The in vitro assays were also used to determine substrate Km, by varying substrate concentration across an appropriate range. Km was calculated using GraFit software (Erithacus, Surrey U.K.)

cynomolgus monkey DPP4 = molecular target: T2, cynomolgus monkey DPP4 (UniProt A0A075TEP6); experiment: Steady-state inhibition of isolated cloned DPP4 at 37°C (gly-pro-pNA); format: biochemical; details: mean ± SD (n)
T2 construct: made in house
Description: as §1, §2

human DPP9 = molecular target: T3, human DPP9 (Homo sapiens, UniProt Q86TI2); experiment: Steady-state inhibition of isolated cloned DPP9 at 37°C (gly-pro-pNA); format: biochemical
T3 construct: made in house
Description: as §5, §6

[4] = human, 37°C, gly-pro-pNA, mean ± SD (n)

cynomolgus monkey DPP8, sequence (A0A2K5VHB7 1-898): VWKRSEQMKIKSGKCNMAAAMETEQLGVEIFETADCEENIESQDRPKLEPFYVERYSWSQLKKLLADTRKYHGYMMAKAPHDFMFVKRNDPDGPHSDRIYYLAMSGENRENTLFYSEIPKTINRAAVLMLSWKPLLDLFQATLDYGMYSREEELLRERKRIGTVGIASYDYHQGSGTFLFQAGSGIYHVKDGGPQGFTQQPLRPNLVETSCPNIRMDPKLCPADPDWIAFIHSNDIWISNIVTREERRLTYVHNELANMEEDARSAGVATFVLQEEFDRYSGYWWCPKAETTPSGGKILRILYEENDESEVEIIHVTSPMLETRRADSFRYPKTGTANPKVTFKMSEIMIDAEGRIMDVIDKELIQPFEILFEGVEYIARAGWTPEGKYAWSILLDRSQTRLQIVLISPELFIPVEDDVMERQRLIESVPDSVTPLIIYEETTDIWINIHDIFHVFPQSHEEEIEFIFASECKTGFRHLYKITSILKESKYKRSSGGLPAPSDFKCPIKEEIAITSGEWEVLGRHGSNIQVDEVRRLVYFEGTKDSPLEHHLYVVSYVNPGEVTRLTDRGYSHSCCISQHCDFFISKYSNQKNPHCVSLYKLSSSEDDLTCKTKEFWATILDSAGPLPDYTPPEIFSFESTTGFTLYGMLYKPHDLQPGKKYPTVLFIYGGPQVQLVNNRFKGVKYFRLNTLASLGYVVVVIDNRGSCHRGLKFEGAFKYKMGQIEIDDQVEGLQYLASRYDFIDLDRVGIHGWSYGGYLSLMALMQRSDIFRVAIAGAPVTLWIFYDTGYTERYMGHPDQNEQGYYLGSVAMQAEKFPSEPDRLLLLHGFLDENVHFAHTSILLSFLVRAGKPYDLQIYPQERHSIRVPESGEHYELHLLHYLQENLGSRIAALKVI
cynomolgus monkey DPP9, sequence (A0A2K5TQ54 156-951): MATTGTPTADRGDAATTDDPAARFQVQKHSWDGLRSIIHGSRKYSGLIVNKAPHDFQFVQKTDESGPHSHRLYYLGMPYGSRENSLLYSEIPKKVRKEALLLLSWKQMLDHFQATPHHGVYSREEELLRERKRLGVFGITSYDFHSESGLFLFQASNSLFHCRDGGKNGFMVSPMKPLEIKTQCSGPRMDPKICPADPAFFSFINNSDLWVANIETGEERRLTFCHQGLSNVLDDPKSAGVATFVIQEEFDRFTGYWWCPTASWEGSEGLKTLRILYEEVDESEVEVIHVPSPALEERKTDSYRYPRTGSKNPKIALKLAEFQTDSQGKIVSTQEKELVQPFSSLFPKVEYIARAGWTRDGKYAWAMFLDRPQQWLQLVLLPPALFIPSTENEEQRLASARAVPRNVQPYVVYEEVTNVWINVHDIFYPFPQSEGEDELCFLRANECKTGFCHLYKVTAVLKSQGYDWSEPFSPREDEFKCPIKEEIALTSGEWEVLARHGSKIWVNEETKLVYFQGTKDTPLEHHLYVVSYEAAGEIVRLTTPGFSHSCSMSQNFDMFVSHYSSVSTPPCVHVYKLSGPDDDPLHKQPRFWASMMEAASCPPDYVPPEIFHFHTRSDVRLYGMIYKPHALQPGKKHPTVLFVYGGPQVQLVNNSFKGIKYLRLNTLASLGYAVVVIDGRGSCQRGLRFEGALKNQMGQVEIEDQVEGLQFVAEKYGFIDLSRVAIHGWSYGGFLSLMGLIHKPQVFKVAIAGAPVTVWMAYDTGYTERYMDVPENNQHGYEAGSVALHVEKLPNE
T3 sequence (Q86TI2 whole entry): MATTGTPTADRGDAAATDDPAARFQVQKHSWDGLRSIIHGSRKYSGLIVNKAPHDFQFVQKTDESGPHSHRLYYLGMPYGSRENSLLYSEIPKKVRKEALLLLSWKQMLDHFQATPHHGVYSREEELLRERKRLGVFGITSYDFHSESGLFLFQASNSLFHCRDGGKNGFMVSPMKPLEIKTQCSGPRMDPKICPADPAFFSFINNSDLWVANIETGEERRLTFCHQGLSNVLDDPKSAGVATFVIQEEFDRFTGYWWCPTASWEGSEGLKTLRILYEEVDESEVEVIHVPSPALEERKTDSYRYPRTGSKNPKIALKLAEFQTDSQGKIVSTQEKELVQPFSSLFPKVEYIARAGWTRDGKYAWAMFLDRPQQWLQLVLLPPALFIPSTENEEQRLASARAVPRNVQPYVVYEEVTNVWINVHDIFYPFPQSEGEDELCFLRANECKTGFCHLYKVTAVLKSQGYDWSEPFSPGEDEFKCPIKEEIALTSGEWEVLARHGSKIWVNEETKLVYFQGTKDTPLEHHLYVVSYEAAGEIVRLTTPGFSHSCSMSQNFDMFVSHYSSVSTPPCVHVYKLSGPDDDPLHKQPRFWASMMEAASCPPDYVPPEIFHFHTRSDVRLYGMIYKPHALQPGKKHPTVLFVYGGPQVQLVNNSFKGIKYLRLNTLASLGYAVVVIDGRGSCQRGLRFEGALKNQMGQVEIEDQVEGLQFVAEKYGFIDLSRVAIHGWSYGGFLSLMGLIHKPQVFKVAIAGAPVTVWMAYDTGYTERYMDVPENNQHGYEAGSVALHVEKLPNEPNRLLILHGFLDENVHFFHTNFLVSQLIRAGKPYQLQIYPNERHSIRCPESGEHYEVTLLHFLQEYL
T1 sequence (Q6V1X1 whole entry): as the sequence (A0A2K5VHB7 1-898) above, with V1M, M357I, S605P, L609P, D823N counted along it
cynomolgus monkey plasma DPP activity, sequence (A0A2K5VXJ1 39-766): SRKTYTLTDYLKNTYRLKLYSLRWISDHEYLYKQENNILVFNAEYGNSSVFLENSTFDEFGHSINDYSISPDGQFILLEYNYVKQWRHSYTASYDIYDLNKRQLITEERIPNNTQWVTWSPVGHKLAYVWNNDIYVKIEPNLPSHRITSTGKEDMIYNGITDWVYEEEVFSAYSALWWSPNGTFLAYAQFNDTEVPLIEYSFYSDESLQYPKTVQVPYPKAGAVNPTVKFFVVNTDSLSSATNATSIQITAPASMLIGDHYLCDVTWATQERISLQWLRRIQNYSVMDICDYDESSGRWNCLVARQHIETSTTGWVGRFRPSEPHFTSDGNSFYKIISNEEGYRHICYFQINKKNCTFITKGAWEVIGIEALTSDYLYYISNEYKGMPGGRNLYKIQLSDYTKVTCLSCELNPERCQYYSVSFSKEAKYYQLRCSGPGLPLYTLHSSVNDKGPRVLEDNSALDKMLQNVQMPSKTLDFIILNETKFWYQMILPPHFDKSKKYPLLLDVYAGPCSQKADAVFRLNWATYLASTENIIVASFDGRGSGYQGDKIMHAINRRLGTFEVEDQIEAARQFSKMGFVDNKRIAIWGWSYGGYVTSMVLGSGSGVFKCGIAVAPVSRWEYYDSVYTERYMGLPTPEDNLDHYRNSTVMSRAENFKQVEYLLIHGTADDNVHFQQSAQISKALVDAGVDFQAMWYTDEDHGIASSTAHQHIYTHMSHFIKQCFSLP
T2 sequence (A0A075TEP6 1-766): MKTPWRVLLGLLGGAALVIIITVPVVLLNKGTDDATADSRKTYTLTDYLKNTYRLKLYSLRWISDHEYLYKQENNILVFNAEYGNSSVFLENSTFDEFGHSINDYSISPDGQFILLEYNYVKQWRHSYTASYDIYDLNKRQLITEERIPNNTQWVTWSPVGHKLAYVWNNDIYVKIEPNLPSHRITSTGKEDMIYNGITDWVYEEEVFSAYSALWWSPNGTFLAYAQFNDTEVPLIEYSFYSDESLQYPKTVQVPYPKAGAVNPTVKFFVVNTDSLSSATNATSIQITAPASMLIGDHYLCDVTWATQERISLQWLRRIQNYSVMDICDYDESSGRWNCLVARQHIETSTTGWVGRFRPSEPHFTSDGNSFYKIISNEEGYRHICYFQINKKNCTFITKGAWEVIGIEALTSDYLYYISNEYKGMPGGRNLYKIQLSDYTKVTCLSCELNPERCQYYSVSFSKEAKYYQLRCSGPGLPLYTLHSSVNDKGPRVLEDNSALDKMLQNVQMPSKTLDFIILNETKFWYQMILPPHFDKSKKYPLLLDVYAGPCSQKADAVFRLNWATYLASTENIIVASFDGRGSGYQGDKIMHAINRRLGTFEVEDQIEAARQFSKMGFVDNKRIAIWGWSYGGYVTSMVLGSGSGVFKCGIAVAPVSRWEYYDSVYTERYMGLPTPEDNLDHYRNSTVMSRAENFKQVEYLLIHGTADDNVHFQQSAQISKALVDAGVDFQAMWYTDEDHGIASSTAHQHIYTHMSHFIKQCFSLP

In the case of N#C[C@@H]1CCCN1C(=O)CNC12CC3CC(CC(O)(C3)C1)C2 [Vildagliptin, reference compound], the Ki (cynomolgus monkey DPP9) is reported as 125 ± 39 nM.

In the case of N#C[C@@H]1C[C@@H]2C[C@@H]2N1C(=O)[C@@H](N)C12CC3CC(CC(O)(C3)C1)C2 [Saxagliptin, (1 S,3 S,5 S)-2-[(2 S)-2-Amino-2-(3-hydroxytricyclo[3.3.1.1^3,7]dec-1-yl)acetyl]-2-azabicyclo[3.1.0]hexane-3-carbonitrile, monohydrate], the Ki (cynomolgus monkey DPP9) is reported as 61 ± 5 nM, the “plasma DPP inhibition ex vivo” value (plasma DPP activity [1]) is reported as “close to maximal inhibition of the inhibitable plasma DPP activity at its highest doses” and the Ki (cynomolgus monkey DPP8) is reported as 390 ± 82 nM.

N[C@@H](CC(=O)N1CCn2c(nnc2C(F)(F)F)C1)Cc1cc(F)c(F)cc1F [Sitagliptin, reference compound] was tested, and the “increase of IC50 in the ala-pro-AFC assay compared to the gly-pro-pNA assay” value [2] was 26 fold, the “plasma DPP inhibition ex vivo” value (plasma DPP activity [3]) was “statistically significant inhibition of plasma DPP activity at 3, 10 and 40 mg/kg doses” and the Ki (cynomolgus monkey DPP9) was 65800 ± 7970 nM. The “plasma DPP inhibition ex vivo” value (plasma DPP activity [1]) was “no effect on plasma DPP activity at any of the doses” and the Ki (cynomolgus monkey DPP8) was 21900 ± 17500 nM.

With N#C[C@@H]1C[C@@H]2C[C@@H]2N1C(=O)[C@@H](N)C12CC3CC(O)(CC(O)(C3)C1)C2 [5-hydroxysaxagliptin] the “slow binding kinetics to DPP8” value (human DPP8) was “Neither saxagliptin nor 5-hydroxysaxagliptin exhibited slow binding kinetics”, the Ki (human DPP8; [4]) was 2500 ± 727 nM and the Ki (cynomolgus monkey DPP4) was 2.9 ± 1.1 nM. For the same compound, the Ki (cynomolgus monkey DPP9) was 323 ± 60 nM, the “slow binding kinetics to DPP9” value (human DPP9) was “Neither saxagliptin nor 5-hydroxysaxagliptin exhibited slow binding kinetics” and the Ki (human DPP9; [4]) was 423 ± 64 nM. For the same compound, the Ki (cynomolgus monkey DPP8) was 2060 ± 658 nM.
